ChEMBL document CHEMBL5375983, “Discovery of YSR734: A Covalent HDAC Inhibitor with Cellular Activity in Acute Myeloid Leukemia and Duchenne Muscular Dystrophy” (J Med Chem, 2023)

Experiments:
Histone deacetylase 2 = Histone deacetylase 2 (Homo sapiens, UniProt Q92769); assay: Inhibition of HDAC2 (unknown origin) using 6-carboxyfluorescein peptide as substrate preincubated with compound for 2 hrs followed by substrate addition by electrophoretic mobility shift assay
Histone deacetylase 1 [1] = molecular target: T1, Histone deacetylase 1 (Homo sapiens, UniProt Q13547); assay: Inhibition of HDAC1 (unknown origin) using 6-carboxyfluorescein peptide as substrate preincubated with compound for 6 hrs followed by substrate addition by electrophoretic mobility shift assay
T1 sequence (Q13547 whole entry): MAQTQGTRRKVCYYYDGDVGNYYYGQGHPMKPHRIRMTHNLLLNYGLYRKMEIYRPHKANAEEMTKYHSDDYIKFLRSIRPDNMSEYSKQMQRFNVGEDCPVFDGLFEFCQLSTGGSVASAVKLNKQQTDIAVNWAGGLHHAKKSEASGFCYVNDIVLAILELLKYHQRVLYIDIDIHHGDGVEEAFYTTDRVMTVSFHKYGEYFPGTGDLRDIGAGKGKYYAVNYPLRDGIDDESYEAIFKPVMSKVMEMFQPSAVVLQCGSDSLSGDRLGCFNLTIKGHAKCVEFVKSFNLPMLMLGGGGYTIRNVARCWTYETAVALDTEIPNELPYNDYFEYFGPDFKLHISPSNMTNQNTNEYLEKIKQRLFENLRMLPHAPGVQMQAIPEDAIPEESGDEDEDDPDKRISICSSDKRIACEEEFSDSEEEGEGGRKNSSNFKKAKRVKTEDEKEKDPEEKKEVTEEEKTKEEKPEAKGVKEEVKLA

Histone deacetylase 8 = molecular target: T2, Histone deacetylase 8 (Homo sapiens, UniProt Q9BY41); assay: Inhibition of full length recombinant human HDAC8 expressed in Sf9 cells using 6-carboxyfluorescein peptide as substrate preincubated with compound followed by substrate addition and measured after 3 hrs by electrophoretic mobility shift assay
T2 sequence (Q9BY41 whole entry): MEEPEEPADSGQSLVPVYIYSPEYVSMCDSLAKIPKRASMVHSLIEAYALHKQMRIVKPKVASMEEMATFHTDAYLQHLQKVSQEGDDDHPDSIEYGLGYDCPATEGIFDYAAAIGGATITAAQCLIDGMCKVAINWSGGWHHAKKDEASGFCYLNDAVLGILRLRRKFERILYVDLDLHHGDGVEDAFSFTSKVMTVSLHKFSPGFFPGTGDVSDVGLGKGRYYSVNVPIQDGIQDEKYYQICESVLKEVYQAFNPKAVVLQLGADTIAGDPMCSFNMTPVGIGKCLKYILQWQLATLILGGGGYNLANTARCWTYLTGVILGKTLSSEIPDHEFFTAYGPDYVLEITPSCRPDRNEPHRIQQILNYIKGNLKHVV

Histone deacetylase 9 = Histone deacetylase 9 (Homo sapiens, UniProt Q9UKV0); assay: Inhibition of HDAC9 (unknown origin) using 6-carboxyfluorescein peptide as substrate preincubated with compound for 6 hrs followed by substrate addition by electrophoretic mobility shift assay
Histone deacetylase 9, sequence (Q9UKV0 whole entry): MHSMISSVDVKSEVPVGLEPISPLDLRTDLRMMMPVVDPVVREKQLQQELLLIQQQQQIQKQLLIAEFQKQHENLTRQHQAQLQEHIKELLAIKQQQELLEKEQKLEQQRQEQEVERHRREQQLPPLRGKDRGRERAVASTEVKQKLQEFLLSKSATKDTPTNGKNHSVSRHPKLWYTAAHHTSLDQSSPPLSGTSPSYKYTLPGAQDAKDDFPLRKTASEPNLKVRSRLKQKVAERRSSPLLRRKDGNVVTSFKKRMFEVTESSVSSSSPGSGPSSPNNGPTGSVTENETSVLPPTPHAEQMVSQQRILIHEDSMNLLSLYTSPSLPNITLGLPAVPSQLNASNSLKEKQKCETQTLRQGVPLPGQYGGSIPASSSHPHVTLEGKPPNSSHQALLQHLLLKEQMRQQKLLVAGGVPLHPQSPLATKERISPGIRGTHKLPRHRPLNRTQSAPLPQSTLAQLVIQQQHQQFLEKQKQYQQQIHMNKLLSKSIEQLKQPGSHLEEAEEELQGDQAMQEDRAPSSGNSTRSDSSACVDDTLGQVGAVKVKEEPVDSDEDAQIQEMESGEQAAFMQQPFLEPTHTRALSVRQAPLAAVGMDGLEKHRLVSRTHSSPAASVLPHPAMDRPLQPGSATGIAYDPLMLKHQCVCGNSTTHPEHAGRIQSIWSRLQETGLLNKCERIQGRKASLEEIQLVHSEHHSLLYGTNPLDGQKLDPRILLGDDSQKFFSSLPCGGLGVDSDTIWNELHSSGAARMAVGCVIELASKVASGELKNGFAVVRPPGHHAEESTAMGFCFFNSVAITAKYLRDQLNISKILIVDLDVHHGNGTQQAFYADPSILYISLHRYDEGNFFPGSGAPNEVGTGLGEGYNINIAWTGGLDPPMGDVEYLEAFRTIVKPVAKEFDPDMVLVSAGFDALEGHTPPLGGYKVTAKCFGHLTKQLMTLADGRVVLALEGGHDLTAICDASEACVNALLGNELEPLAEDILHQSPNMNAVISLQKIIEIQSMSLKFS

[2] = molecular target: T3, Polyamine deacetylase HDAC10 (Homo sapiens, UniProt Q969S8); assay: Inhibition of HDAC10 (unknown origin) using 6-carboxyfluorescein peptide as substrate preincubated with compound for 6 hrs followed by substrate addition by electrophoretic mobility shift assay
T3 sequence (Q969S8 whole entry): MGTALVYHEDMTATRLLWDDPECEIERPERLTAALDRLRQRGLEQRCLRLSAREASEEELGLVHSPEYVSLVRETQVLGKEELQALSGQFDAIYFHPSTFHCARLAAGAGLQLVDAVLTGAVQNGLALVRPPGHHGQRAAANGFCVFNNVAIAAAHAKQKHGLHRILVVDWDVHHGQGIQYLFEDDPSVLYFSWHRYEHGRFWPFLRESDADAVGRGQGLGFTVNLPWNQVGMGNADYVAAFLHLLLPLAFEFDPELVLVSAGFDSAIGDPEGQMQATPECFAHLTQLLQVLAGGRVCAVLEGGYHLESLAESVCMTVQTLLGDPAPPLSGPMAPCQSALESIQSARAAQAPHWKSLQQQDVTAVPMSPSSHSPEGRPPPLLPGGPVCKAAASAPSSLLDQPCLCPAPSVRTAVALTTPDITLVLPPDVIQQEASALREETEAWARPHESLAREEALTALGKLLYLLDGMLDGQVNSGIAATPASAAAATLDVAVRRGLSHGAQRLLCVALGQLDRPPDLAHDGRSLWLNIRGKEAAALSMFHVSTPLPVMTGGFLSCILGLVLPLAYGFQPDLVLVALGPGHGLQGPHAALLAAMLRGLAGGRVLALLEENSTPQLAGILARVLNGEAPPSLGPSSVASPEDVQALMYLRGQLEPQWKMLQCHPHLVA

Histone deacetylase 1 [3] = molecular target: T1, Histone deacetylase 1; assay: Inhibition of HDAC1 (unknown origin) using 6-carboxyfluorescein peptide as substrate preincubated with compound followed by substrate addition by electrophoretic mobility shift assay
Histone deacetylase 7 = molecular target: T4, Histone deacetylase 7 (Homo sapiens, UniProt Q8WUI4); assay: Inhibition of HDAC7 (unknown origin) using 6-carboxyfluorescein peptide as substrate preincubated with compound for 6 hrs followed by substrate addition by electrophoretic mobility shift assay
T4 sequence (Q8WUI4 whole entry): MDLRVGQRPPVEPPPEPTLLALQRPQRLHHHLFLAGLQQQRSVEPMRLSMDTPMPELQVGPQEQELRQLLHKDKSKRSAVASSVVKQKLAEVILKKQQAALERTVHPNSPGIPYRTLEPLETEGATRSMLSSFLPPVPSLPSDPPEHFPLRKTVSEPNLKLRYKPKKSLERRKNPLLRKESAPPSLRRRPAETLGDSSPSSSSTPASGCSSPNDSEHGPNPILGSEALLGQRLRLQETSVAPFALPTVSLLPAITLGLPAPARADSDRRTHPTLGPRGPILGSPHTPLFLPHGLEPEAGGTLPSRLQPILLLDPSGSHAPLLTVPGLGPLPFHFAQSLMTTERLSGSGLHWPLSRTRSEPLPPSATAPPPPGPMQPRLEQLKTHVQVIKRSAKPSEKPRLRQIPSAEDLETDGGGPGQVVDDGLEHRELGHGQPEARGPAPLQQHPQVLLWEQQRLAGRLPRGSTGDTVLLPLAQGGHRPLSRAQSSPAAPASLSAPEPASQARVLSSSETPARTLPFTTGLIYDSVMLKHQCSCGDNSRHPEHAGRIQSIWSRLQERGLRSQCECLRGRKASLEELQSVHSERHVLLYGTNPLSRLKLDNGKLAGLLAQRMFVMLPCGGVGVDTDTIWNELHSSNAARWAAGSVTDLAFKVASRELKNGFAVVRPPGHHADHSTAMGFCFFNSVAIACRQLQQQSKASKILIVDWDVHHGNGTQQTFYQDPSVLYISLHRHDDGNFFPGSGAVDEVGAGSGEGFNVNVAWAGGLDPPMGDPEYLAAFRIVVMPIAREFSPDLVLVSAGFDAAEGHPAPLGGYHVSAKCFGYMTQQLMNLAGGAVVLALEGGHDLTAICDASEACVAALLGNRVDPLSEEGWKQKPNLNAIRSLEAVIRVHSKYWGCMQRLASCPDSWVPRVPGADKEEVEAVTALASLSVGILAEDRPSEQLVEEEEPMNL

Histone deacetylase 2, sequence (Q92769 whole entry): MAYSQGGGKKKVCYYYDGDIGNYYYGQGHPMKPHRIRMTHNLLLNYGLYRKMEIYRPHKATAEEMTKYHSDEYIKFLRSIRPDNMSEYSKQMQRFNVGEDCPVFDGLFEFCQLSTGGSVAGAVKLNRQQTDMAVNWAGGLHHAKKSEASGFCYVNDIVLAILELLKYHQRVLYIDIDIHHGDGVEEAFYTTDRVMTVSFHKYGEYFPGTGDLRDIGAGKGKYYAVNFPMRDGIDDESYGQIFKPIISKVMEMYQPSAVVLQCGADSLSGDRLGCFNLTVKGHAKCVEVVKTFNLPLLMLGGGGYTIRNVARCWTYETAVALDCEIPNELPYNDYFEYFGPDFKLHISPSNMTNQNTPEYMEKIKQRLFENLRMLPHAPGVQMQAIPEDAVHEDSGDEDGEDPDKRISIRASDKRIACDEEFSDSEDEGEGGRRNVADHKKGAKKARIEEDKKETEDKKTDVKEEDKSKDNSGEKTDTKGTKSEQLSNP

IC50 (Histone deacetylase 2): 327 nM
IC50 (Histone deacetylase 1 [1]): 109 nM
IC50 (Histone deacetylase 8): > 10000 nM
IC50 (Histone deacetylase 9): > 10000 nM
IC50 [2]: > 10000 nM
IC50 (Histone deacetylase 1 [3]): 242 nM
IC50 (Histone deacetylase 7): > 10000 nM
SMILES: Nc1ccccc1NC(=O)c1ccc(CNC(=O)OC2CCN(S(=O)(=O)c3c(F)c(F)c(F)c(F)c3F)CC2)cc1
